Measured values from patent US20230120044A1, “AGROCHEMICAL ADJUVANTS” (Croda International Plc, priority 2020, published 2023).

System: Botrytis cinerea (ATCC 90479)
Assay: Adjuvancy with pyraclostrobin, agar growth inhibition of hyphal inoculum
Format: cell-based
Conditions: for Fold Change in Growth Inhibition: vs pyraclostrobin alone, 48 hours, 22° C.
Experimental: Percent Inhibition—The percent inhibition will be understood to represent the amount the fungicide and/or adjuvant inhibits the visible growth of the microorganism after 48 hours incubation at 22° C. relative to vehicle treated controls. This is calculated using the following formula: […]
Fold Change—The fold change is a measure of the adjuvant/fungicide combination in inhibiting a microorganism compared to the fungicide alone. This indicates how the adjuvant performs relative to the fungicide alone. This is calculated using the following formula: […]
Botrytis cinerea (ATCC 90479) was cultured on potato dextrose agar (PDA) for 7 days with diurnal UV cycles (12 h UV light and 12 h dark). Spores were harvested in a buffered, sterile saline solution (0.9% saline water with 1% Tween 80) and counted using a haemocytometer. The spore suspension was adjusted to a final concentration of 8.5×10^6 spores/mL to create a standardised inoculum.
To prepare hyphal fragments for adjuvant testing, 8.5×10^4 spores were used to inoculate 10 mL of potato dextrose broth in a 150×25 mm tube. The tube was incubated at 220 RPM, 22° C. for 48 hours. To create hyphal fragments from the culture, the culture was transferred to a 50 mL plastic conical tube containing approximately 20 sterile 5 mm diameter glass beads and vortexed for 5 min. After vortexing the tube was allowed to stand for 5 min to allow large mycelial clumps to settle and then the top layer containing hyphal fragments was removed and used as inocula for growth inhibition assays.
Fungicides and adjuvants were dissolved in methanol and added to molten PDA (˜50° C.) and then the agar was distributed in the wells of 12 well multiwell plates (1 mL/well). The plates were cooled to room temperature and 10 μL of hyphal inoculum was added to the centre of each well. The plates were incubated at 22° C. for 48 hours and then the colony diameter was measured using a digital caliper. The biological growth control consisted of hyphae and vehicle (0.07% methanol), the negative control was media and vehicle (0.07% methanol).

## C/C=C/[C@@H]1[C@H]2C[C@@H](C)CC[C@@H]2C(C)=C[C@H]1C(=O)c1c(O)c(-c2ccc(O)cc2)c[nH]c1=O [Ilicicolin H (A), ilicicolin H]
Adjuvant 1.56 μg/mL + pyraclostrobin 0.1 μg/mL
  Fold Change in Growth Inhibition: 3.32
Adjuvant 1.56 μg/mL + pyraclostrobin 0.2 μg/mL
  Fold Change in Growth Inhibition: 1.93
Adjuvant 1.56 μg/mL + pyraclostrobin 0.4 μg/mL
  Fold Change in Growth Inhibition: 1.36
Adjuvant 1.56 μg/mL + pyraclostrobin 0.8 μg/mL
  Fold Change in Growth Inhibition: 1.04
Adjuvant 3.13 μg/mL + pyraclostrobin 0.1 μg/mL
  Fold Change in Growth Inhibition: 3.51
Adjuvant 3.13 μg/mL + pyraclostrobin 0.2 μg/mL
  Fold Change in Growth Inhibition: 2.43
Adjuvant 3.13 μg/mL + pyraclostrobin 0.4 μg/mL
  Fold Change in Growth Inhibition: 1.35
Adjuvant 3.13 μg/mL + pyraclostrobin 0.8 μg/mL
  Fold Change in Growth Inhibition: 1.21
Adjuvant 6.25 μg/mL + pyraclostrobin 0.1 μg/mL
  Fold Change in Growth Inhibition: 3.62
Adjuvant 6.25 μg/mL + pyraclostrobin 0.2 μg/mL
  Fold Change in Growth Inhibition: 1.88
Adjuvant 6.25 μg/mL + pyraclostrobin 0.4 μg/mL
  Fold Change in Growth Inhibition: 1.26
Adjuvant 6.25 μg/mL + pyraclostrobin 0.8 μg/mL
  Fold Change in Growth Inhibition: 0.96
Adjuvant alone, at any of the concentrations tested
  inherent fungicidal activity on their own: did not demonstrate any inherent fungicidal activity
